# Tested on: T1, erg-mediated K+ channel (Kerg, KV11)
# T1 construct: gene Kcnh2; native channel in GH3 pituitary tumor cells
# Assay: whole-cell patch clamp of native IK(erg) in GH3 cells
# Assay type: cell-based
structure (smiles),measurement,value
"CC1=CC(=O)c2cccc(O)c2C1=O [isoPLB, 8-hydroxy-2-methylnaphthalene-1,4-dione]",IC50,2400 nM
